Where a name gives a salt, the structure may show the parent alone.

Series [1] has as its target T1, CYP2D6 (Homo sapiens, UniProt P10635).
T1 construct: purchased GenTest (Woburn, Mass., USA)
The series can be described thus: Metabolic stability in CYP2D6 SUPERSOMES
To be noted: recombinant CYP2D6 SUPERSOMES, 50 pmol/mL CYP2D6 SUPERSOMES, 1 μM test compound, 2 mM NADPH, pH 7.4, 37° C., 0-30 min, read-out: t1/2 ± SD, calculated half-life in SUPERSOMES
It is filed as in vitro ADME. The method, then:
Human CYP2D6 SUPERSOMES™ were purchased from GenTest (Woburn, Mass., USA). 7.5 mM stock solutions of test compounds (Compounds 100, 102, and the ethyl ether analog of dextromethorphan (“dextroethorphan”) were prepared in DMSO. The 7.5 mM stock solutions were diluted to 50 μM in acetonitrile (ACN). The 1000 pmol/mL CYP2D6 supersomes were diluted to 62.5 pmol/mL in 0.1 M potassium phosphate buffer, pH 7.4, containing 3 mM MgCl2. The diluted SUPERSOMES™ were added to wells of a 96-well deep-well polypropylene plate in triplicate. 10 μL of the 50 μM test compound was added to the supersomes and the mixture was pre-warmed for 10 minutes. Reactions were initiated by addition of pre-warmed NADPH solution. The final reaction volume was 0.5 mL and contained 50 pmol/mL CYP2D6 SUPERSOMES™, 1 μM test compound, and 2 mM NADPH in 0.1 M potassium phosphate buffer, pH 7.4, and 3 mM MgCl2. The reaction mixtures were incubated at 37° C. and 50 μL aliquots were removed at 0, 5, 10, 20, and 30 minutes and added to shallow-well 96-well plates which contained 50 μL of ice-cold ACN with internal standard to stop the reactions. The plates were stored at 4° C. for 20 minutes after which 100 μL of water was added to the wells of the plate before centrifugation to pellet precipitated proteins. Supernatants were transferred to another 96-well plate and analyzed for amounts of parent remaining by LC-MS/MS using an Applied Bio-systems API 4000 mass spectrometer.
The in vitro half-life (t1/2) for each of the test compounds was calculated from the slopes of the linear regression of % parent remaining (ln) vs incubation time relationship: in vitro t1/2=0.693/k, where k=−[slope of linear regression of % parent remaining (ln) vs incubation time]. Data analysis was performed using Microsoft Excel Software.

Series [2] in a line: Metabolic stability using human liver microsomes. It is filed as in vitro ADME. To be noted: for half-life at 1 μM / Change over non-deuterated compound (Table 3): Table 3 experiment; for half-life at 1 μM: read-out: t1/2 ± SD, calculated half-life in human liver microsomes (Table 3); for Change over non-deuterated compound (Table 3): change of half-life in human liver microsomes vs dextroethorphan. The protocol: Human liver microsomes (20 mg/mL) were obtained from Xenotech, LLC (Lenexa, Kans.). β-nicotinamide adenine dinucleotide phosphate, reduced form (NADPH), magnesium chloride (MgCl2), and dimethyl sulfoxide (DMSO) were purchased from Sigma-Aldrich.
7.5 mM stock solutions of test compounds were prepared in DMSO. The 7.5 mM stock solutions were diluted to 50 μM in acetonitrile (ACN). The 20 mg/mL human liver microsomes were diluted to 1.25 mg/mL (1 mg/mL final) in 0.1 M potassium phosphate buffer, pH 7.4, containing 3 mM MgCl2. The diluted microsomes (375 μL) were added to wells of a 96-well polypropylene plate in triplicate. 10 μL of the 50 μM test compound was added to the microsomes and the mixture was pre-warmed for 10 minutes. Reactions were initiated by addition of 125 μL of pre-warmed NADPH solution. The final reaction volume was 0.5 mL and contained 1.0 mg/mL human liver microsomes, 1 μM test compound, and 2 mM NADPH in 0.1 M potassium phosphate buffer, pH 7.4, and 3 mM MgCl2. The reaction mixtures were incubated at 37° C., and 50 μL aliquots were removed at 0, 5, 10, 20, and 30 minutes and added to shallow 96-well plates which contained 50 μL of ice-cold ACN with internal standard to stop the reactions. The plates were stored at 4° C. for 20 minutes after which 100 μL of water was added to the wells of the plate before centrifugation to pellet precipitated proteins. Supernatants were transferred to another 96-well plate and analyzed for amounts of parent remaining by LC-MS/MS using an Applied Bio-systems API 4000 mass spectrometer. 7-ethoxy coumarin was used as a positive control.
The in vitro t1/2s for test compounds were calculated from the slopes of the linear regression of % parent remaining (ln) vs incubation time relationship:
in vitro t1/2=0.693/k, where k=−[slope of linear regression of % parent remaining(ln) vs incubation time]
Data analysis was performed using Microsoft Excel Software.

Setting [3] is: 1.0 mg/mL human liver microsomes, 1 μM test compound, 2 mM NADPH, pH 7.4, 37° C.

T1 sequence (P10635 whole entry): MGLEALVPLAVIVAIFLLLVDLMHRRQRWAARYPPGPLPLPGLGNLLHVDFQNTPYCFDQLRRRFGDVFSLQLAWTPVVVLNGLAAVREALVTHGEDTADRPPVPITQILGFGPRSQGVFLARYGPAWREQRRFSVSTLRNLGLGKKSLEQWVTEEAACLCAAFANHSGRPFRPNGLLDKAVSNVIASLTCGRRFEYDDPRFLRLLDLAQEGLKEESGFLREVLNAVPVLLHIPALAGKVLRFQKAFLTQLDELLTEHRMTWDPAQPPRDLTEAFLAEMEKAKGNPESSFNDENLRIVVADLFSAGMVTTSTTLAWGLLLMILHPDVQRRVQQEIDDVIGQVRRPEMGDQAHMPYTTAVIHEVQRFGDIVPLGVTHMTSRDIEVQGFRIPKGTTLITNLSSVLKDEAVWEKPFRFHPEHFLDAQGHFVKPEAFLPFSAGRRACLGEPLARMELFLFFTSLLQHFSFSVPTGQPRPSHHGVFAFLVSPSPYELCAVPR

Regarding `COc1ccc2c(c1)[C@]13CCCC[C@@H]1[C@H](C2)N(C)CC3` [Dextromethorphan, (+)-3-methoxy-17-methyl-(9α,13α,14α)-morphinan, reference compound], the half-life at 1 μM in series [1] was 1.7 ± 0.3 min.

As for `[2H]C([2H])([2H])N1CC[C@@]23CCCC[C@@H]2[C@@H]1Cc1ccc(OC([2H])([2H])C([2H])([2H])[2H])cc13` [Compound 100, (+)-3-(Ethoxy-d5)-17-(methyl-d3)-(9α,13α,14α)-morphinan hydrochloride], the half-life at 1 μM in series [1] was 51.3 ± 3.7 min; in series [2] (setting [3]), 59.2 ± 1.7 min. In addition, in series [2], the “Change over non-deuterated compound (Table 3)” value is listed as 109%.

As for `[2H]C([2H])([2H])C([2H])([2H])Oc1ccc2c(c1)[C@]13CCCC[C@@H]1[C@H](C2)N(C)CC3` [Compound 104, (+)-3-(Ethoxy-d5)-17-methyl-(9α,13α,14α)-morphinan hydrochloride], the values for the half-life at 1 μM in series [1] and in series [2] (setting [3]) were 49.1 ± 4.1 min and 59.1 ± 2.2 min, respectively. Moreover, in series [2], the “Change over non-deuterated compound (Table 3)” value is given as 109%.

For `CCOc1ccc2c(c1)[C@@]13CCCC[C@H]1[C@@H](C2)N(C)CC3` [Dextroethorphan, (+)-3-ethoxy-17-methylmorphinan, reference compound], the results for the half-life at 1 μM in series [1] and in series [2] (setting [3]) were 10.3 ± 2.1 min and 28.3 ± 0.6 min, respectively. For the same molecule, the “t1/2 ± SD, calculated half-life in human liver microsomes (Table 4)” value in series [2] (1.0 mg/mL human liver microsomes, 1 μM test compound, 2 mM NADPH, pH 7.4, 37° C., Table 4 experiment) is listed as 37.1 ± 5.6 min.

The record behind these values is patent publication US20180243289A1, “[…] COMPOUNDS FOR TREATING AGITATION” (Concert Pharmaceuticals, Inc., priority 2015, published 2018).
